From patent US11730712B2, “Functionalized long-chain hydrocarbon mono- and di-carboxylic acids and derivatives thereof, and their use for the prevention or treatment of disease” (ESPERVITA THERAPEUTICS, INC., priority 2021, dated 2023)
Where “and” joins values, the source holds several entries; their conditions need not be identical. Identical values can stand only once.

Legend:
[1] = biological target: T1, human ACLY (Homo sapiens, UniProt P53396); test: ATP-citrate lyase (ACLY) enzymatic assay (ADP-Glo); type: biochemical; settings: recombinant human ACLY, Run 1-3, read-out: Compound IC50 (M) ACLY
T1 construct: human ACLY (P533%) (Met 1-Met 1101) expressed in Baculovirus-Insect Cells; purchased Sino Biological Inc. 11769-H07B; host or cells: Baculovirus-Insect Cells
Protocol: ATP citrate lyase was obtained from Sino Biological Inc. Cat #11769-H07B, Lot #LC08DE1701. It was prepared from a DNA sequence encoding the human ACLY (P533%) (Met 1-Met 1101) expressed in Baculovirus-Insect Cells, with a polyhistidine tag at the N-terminus. The recombinant human ACLY consists of 1120 amino acids and has a calculated molecular mass of 123 kDa. It migrates as an approximately 110 kDa band in SDS-PAGE under reducing conditions. The enzyme came as a lyophilized powder in sterile 20 mM Tris, 500 mM NaCl, pH 8.0, 10% glycine. Normally 5%-8% trehalose and mannitol are added as protectants before lyophilization. […]
To detect ADP produced from ACL assay, the ADP-Glo™ assay format from Promega, Madison, Wis., was used, to detect the conversion of ATP to ADP. […] This assay is performed in two steps: i) after the ACL-mediated enzymatic reaction that utilizes ATP and produces ADP, ADP-Glo™ Reagent is added to terminate the kinase reaction and deplete the remaining ATP, and ii) the Kinase Detection Reagent is added to convert ADP to ATP and allow the newly synthesized ATP to be measured using a luciferase/luciferin reaction. The light generated, measured in a luminometer, correlates to the amount of ADP generated in the ACL assay, which is indicative of ACL activity. […]

[2] = tested on: expanded HSPC / megakaryocytes; test: Platelet production from expanded HSPC cultured into megakaryocytes; type: cell-based; settings: added to expanded HSPC at day 0 or day 6, cultured into megakaryocytes for 8 days
Protocol: Compound I-32 (A) and Compound I-1 (B) were added to expanded HSPC at day 0 (FIGS. 25A-25E) as they were cultured into megakaryocytes for 8 days or at day 6 (FIGS. 25F-25J). CD41a cell count (FIG. 25A), CD41aCd42b+ cell count (FIG. 25B), platelet levels (FIG. 25C), CD41a MFI (FIG. 25D) and CD41a FSC cell size (FIG. 25E) were analyzed at day 0. CD41a cell count (FIG. 25F), CD41aCd42b+ cell count (FIG. 25G), platelet levels (FIG. 25H), CD41a MFI (FIG. 25I) and CD41a FSC cell size (FIG. 25J) were analyzed at day 6.

[3] = tested on: C57BL/6 mice with UUO; test: Murine unilateral ureter obstruction (UUO) renal fibrosis model; type: in vivo, mouse; settings: 100 mg/kg daily oral gavage, 9 days after UUO
Protocol: Animal studies were carried out in accordance with the principles of laboratory animal care of the Canadian Council on Animal Care guidelines. Male C57BL/6 mice were obtained from Charles Rivers Laboratories. FIG. 13A summarizes the timeline for this experiment. UUO model was created as follows: male C57BL6J mice (8 weeks old from Charles River Laboratories) were anesthetized with 4% isofluorane and an anesthetic plane was maintained throughout surgery at 1.5-2% isofluorane with 1 L/min oxygen. A 0.5 cm incision was made longitudinally on the left flank. The left ureter and lower pole of the kidney was exposed, and the ureter was ligated with a […] in close proximity to the renal pelvis. A sham operation control group was created by surgical exposure of the left ureter and lower pole of the kidney followed by closure of the incision. Subcutaneous fluids were given (1.5 ml 0.9% NaCl) and the incision was closed with 4′0 silk sutures followed by staples for the skin. Starting the day of model creation, the animals were given a daily dose of either vehicle alone (sham surgery and UUO control, 1.5% CMC and 0.2% Tween-20) or vehicle containing Compound I-32 or Compound I-1 (at 100 mg/kg) by oral gavage for 9 days following surgery. At the end of the treatment period mice were anesthetized prior to euthanasia by bilateral thoraco-abdominal incision. Blood was collected by cardiac puncture, followed by kidney perfusion with cold saline through left ventricular cannulation. The left kidney was removed, a sample taken and fixed in formalin for histological analysis. Trichrome staining was done on formalin-fixed sections (4 μm) following deparaffinization according to manufacturers instructions (Sigma HT15-1KT). Images were quantified by measuring the percentage of positive area using Image J on micrographs captured at ×200 magnification using the BX41 Olympus microscope. Statistical analysis was performed using GraphPad Prism 8. A one-way ANOVA was used to determine significance. A p-value of less than or equal to 0.05 was used as the criterion of significance. This route was selected because it simulates oral administration to mammalian, including human, subjects and ensures that the correct dose of compound is ingested by each animal.
Immunohistochemistry. Formalin-fixed kidneys were embedded in paraffin, then sectioned at 4 μm. After deparaffinization, they were stained with Masson's trichrome to assess collagen content (Sigma Aldrich, catalogue no. HT15-1T), picrosirius red (PSR) to more specifically assess pathogenic collagens I and III (Polysciences, Inc., catalogue no. 24901-500), αSMA as a marker of activated, profibrotic fibroblasts (PIERCE, catalogue no. MA1-06110; 30 min steaming for antigen retrieval, antibody used at 1:5000 for 2 h at room temperature), CD3 to identify T-lymphocytes (Dako, catalogue no. A0452; 30 min steaming for antigen retrieval, antibody used at 1:500 overnight at 4° C.) and F4/80 to identify, macrophages (done by the McMaster Histology Facility). Slides were counterstained with hematoxylin, dehydrated twice with 90% ethanol, cleared twice with xylene, coverslipped with mounting media, and then left to dry overnight before imaging. Masson's trichrome, αSMA, CD3 and F4/80 were imaged under transmitted light and quantified using ImageJ. The Olympus IX81 fluorescence microscope driven by Metamorph was used to image and quantify PSR staining. Images were quantified by measuring the percentage of positive area. All micrographs were captured at ×20 magnification.

CC(C)(CCCCc1cccc(CCCCC(C)(C)C(=O)SCCNC(=O)CCNC(=O)[C@H](O)C(C)(C)COP(=O)(O)OP(=O)(O)OC[C@H]2O[C@@H](n3cnc4c(N)ncnc43)[C@H](O)[C@@H]2OP(=O)(O)O)c1)C(=O)O [Compound I-32-CoA, 6-[3-(5-Carboxy-5-methylhexyl)-phenyl]-2,2-dimethylhexanoic acid Coenzyme A Ester]
IC50 [1]: 9.88e-07 M and 1.22e-06 M and 1.44e-06 M

CC(C)(CCCCc1ccc(CCCCC(C)(C)C(=O)SCCNC(=O)CCNC(=O)[C@H](O)C(C)(C)COP(=O)(O)OP(=O)(O)OC[C@H]2O[C@@H](n3cnc4c(N)ncnc43)[C@H](O)[C@@H]2OP(=O)(O)O)cc1)C(=O)O [Compound I-1-CoA, 6-[4-(5-carboxy-5-methylhexyl)-phenyl]-2,2-dimethylhexanoic acid Coenzyme A ester]
IC50 [1]: 3.34e-06 M and 2.28e-06 M and 2.5e-06 M

CC(C)(CCCCc1ccc(CCCCC(C)(C)C(=O)O)cc1)C(=O)O [Compound I-1, 6-[4-(5-carboxy-5-methylhexyl)-phenyl]-2,2-dimethylhexanoic acid]
platelet production [2]: do not significantly affect
T-lymphocyte infiltration (CD3 stain) [3]: no effect on T-lymphocytes
UUO-induced increases in Trichrome and αSMA (renal fibrosis) [3]: decreased
macrophage infiltration (F4/80 stain) [3]: significantly reduced macrophage infiltration

CC(C)(CCCCc1cccc(CCCCC(C)(C)C(=O)O)c1)C(=O)O [Compound I-32, 6-[3-(5-carboxy-5-methylhexyl)-phenyl]-2,2-dimethylhexanoic acid]
platelet production [2]: do not significantly affect
T-lymphocyte infiltration (CD3 stain) [3]: no effect on T-lymphocytes
UUO-induced increases in Trichrome and αSMA (renal fibrosis) [3]: trend to reduction
macrophage infiltration (F4/80 stain) [3]: significantly reduced macrophage infiltration
